Measured values taken from the supplement of paper PMC10307832.

Columns and labels:
Assay in all cases: relative viability (nuclei count vs DMSO), 5 days (fraction); higher = more cells survive
Ispinesib + AZD7762 = compound: Cc1ccc(C(=O)N(CCCN)[C@@H](c2nc3cc(Cl)ccc3c(=O)n2Cc2ccccc2)C(C)C)cc1 [Ispinesib] + NC(=O)Nc1cc(-c2cccc(F)c2)sc1C(=O)N[C@H]1CCCNC1 [AZD7762] (partner 0.2 µM)
Procedure, shortened: (§1)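 Each reported value is a median over duplicate plates. It expresses relative viability: treated-well nuclei count divided by vehicle-well nuclei count. Lung cancer cell lines in 1536-well plates were dosed by pin tool a day after seeding, alone with one drug or with a fixed anchor-drug dose plus five library-drug doses (not always all listed) in √10 steps, and nuclei were counted after 5 days.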

Ispinesib + Luminespib = compound: Cc1ccc(C(=O)N(CCCN)[C@@H](c2nc3cc(Cl)ccc3c(=O)n2Cc2ccccc2)C(C)C)cc1 [Ispinesib] + CCNC(=O)c1noc(-c2cc(C(C)C)c(O)cc2O)c1-c1ccc(CN2CCOCC2)cc1 [Luminespib] (partner 0.01 µM)
Procedure, shortened: as §1

Linsitinib + Bortezomib = compound: C[C@]1(O)C[C@@H](c2nc(-c3ccc4ccc(-c5ccccc5)nc4c3)c3c(N)nccn32)C1 [Linsitinib] + CC(C)C[C@H](NC(=O)[C@H](Cc1ccccc1)NC(=O)c1cnccn1)B(O)O [Bortezomib] (partner 0.002 µM)
Procedure, shortened: as §1

Linsitinib + Tozasertib = compound: C[C@]1(O)C[C@@H](c2nc(-c3ccc4ccc(-c5ccccc5)nc4c3)c3c(N)nccn32)C1 [Linsitinib] + Cc1cc(Nc2cc(N3CCN(C)CC3)nc(Sc3ccc(NC(=O)C4CC4)cc3)n2)n[nH]1 [Tozasertib] (partner 0.1 µM)
Procedure, shortened: as §1

| Cell Line | relative viability (Ispinesib + AZD7762; first compound 0.001 µM) | relative viability (Ispinesib + AZD7762; first compound 0.003162 µM) | relative viability (Ispinesib + AZD7762; first compound 0.01 µM) | relative viability (Ispinesib + AZD7762; first compound 0.03162 µM) | relative viability (Ispinesib + AZD7762; first compound 0.1 µM) | relative viability (Ispinesib + Luminespib; first compound 0.001 µM) | relative viability (Ispinesib + Luminespib; first compound 0.003162 µM) | relative viability (Ispinesib + Luminespib; first compound 0.01 µM) | relative viability (Ispinesib + Luminespib; first compound 0.03162 µM) | relative viability (Ispinesib + Luminespib; first compound 0.1 µM) | relative viability (Linsitinib + Bortezomib; first compound 0.01 µM) | relative viability (Linsitinib + Bortezomib; first compound 0.03162 µM) | relative viability (Linsitinib + Bortezomib; first compound 0.1 µM) | relative viability (Linsitinib + Bortezomib; first compound 0.3162 µM) | relative viability (Linsitinib + Bortezomib; first compound 1 µM) | relative viability (Linsitinib + Tozasertib; first compound 0.01 µM) | relative viability (Linsitinib + Tozasertib; first compound 0.03162 µM) | relative viability (Linsitinib + Tozasertib; first compound 0.1 µM) | relative viability (Linsitinib + Tozasertib; first compound 0.3162 µM) | relative viability (Linsitinib + Tozasertib; first compound 1 µM) |
| --- | --- | --- | --- | --- | --- | --- | --- | --- | --- | --- | --- | --- | --- | --- | --- | --- | --- | --- | --- | --- |
| 201T | 0.662 | 0.521 | 0.643 | 0.65 | 0.309 | 1.07 | 1.05 | 1.15 | 0.988 | 0.937 | 1.1 | 1.12 | 1.08 | 1.08 | 1.03 | 0.951 | 0.929 | 0.988 | 0.977 | 0.938 |
| A-427 | 0.853 | 0.817 | 0.976 | 0.462 | 0.32 | 1 | 1.11 | 1.33 | 0.352 | 0.389 | 0.974 | 1.02 | 0.987 |  | 0.869 | 0.211 | 0.222 | 0.234 |  | 0.177 |
| ABC-1 | 0.981 | 1.21 | 0.852 | 0.395 | 0.301 |  | 0.598 | 0.613 | 0.369 | 0.469 | 0.325 | 0.291 | 0.276 | 0.284 | 0.252 | 0.18 | 0.164 | 0.145 | 0.153 | 0.171 |
| BEN | 0.745 | 0.85 | 0.678 | 0.472 | 0.347 | 0.617 | 0.576 | 0.237 | 0.247 | 0.234 | 0.884 | 0.78 | 0.658 | 0.612 | 0.626 | 0.537 | 0.611 | 0.481 | 0.377 | 0.486 |
| CAL-12T | 0.707 | 0.74 | 0.594 | 0.52 | 0.212 | 0.318 | 0.394 | 0.688 | 0.379 | 0.236 | 0.873 | 0.882 | 0.996 | 0.833 | 0.817 | 0.267 | 0.287 | 0.296 | 0.255 | 0.225 |
| COR-L23 |  |  |  |  |  | 0.805 | 0.815 | 0.824 | 0.356 | 0.215 | 0.861 | 1.03 | 1.08 | 0.896 | 1.06 | 0.196 | 0.207 | 0.396 | 0.174 | 0.152 |
| COR-L 105 |  |  |  |  |  | 0.737 | 0.666 | 0.808 | 0.349 | 0.439 | 0.821 | 0.619 | 0.785 | 0.389 | 0.501 | 0.421 | 0.324 | 0.356 | 0.298 | 0.309 |
| Calu-6 |  |  |  |  |  |  |  |  |  |  | 0.996 | 1.04 | 1.05 | 0.867 | 0.905 |  |  |  |  |  |
| ChaGo-K-1 | 1.01 | 0.874 | 0.879 | 0.903 | 0.245 | 0.727 | 0.712 | 0.82 | 0.639 | 0.492 | 1.05 | 0.98 | 0.922 | 0.443 | 1 | 0.208 | 0.184 | 0.221 | 0.227 | 0.2 |
| EBC-1 |  |  |  |  |  |  |  |  |  |  | 0.59 | 0.536 | 0.579 | 0.519 | 0.442 |  |  |  |  |  |
| EKVX | 0.777 |  | 0.767 | 0.464 | 0.303 | 0.837 | 0.875 | 0.937 | 0.829 | 0.563 | 1.12 | 1.02 | 1.07 | 0.9 | 0.852 | 0.362 | 0.385 | 0.493 | 0.214 | 0.352 |
| EMC-BAC-2 | 1.22 | 1.23 | 1.34 | 0.704 | 0.599 | 0.797 | 1.32 | 1.36 | 1.13 | 0.6 | 1.08 | 1.05 | 1.01 | 0.628 | 0.917 | 0.294 | 0.271 | 0.291 | 0.206 | 0.255 |
| EPLC-272H | 0.226 | 0.253 | 0.21 | 0.16 | 0.0883 | 0.215 | 0.326 | 0.25 | 0.196 | 0.234 | 0.882 | 1.11 | 1.06 |  | 0.857 | 0.358 | 0.249 |  |  | 0.222 |
| H3255 | 0.94 | 1.06 | 0.89 | 0.623 | 0.311 | 0.898 | 1.1 | 0.859 | 0.557 | 0.29 | 0.803 | 0.796 | 0.812 | 0.541 | 0.627 | 0.626 | 0.65 | 0.612 | 0.497 | 0.559 |
| HARA | 0.501 | 0.345 | 0.365 | 0.308 | 0.227 | 1.12 | 0.617 | 0.788 | 0.64 | 0.233 | 1.11 | 1.08 | 1.21 | 0.666 | 1.15 | 0.135 | 0.106 | 0.202 |  | 0.138 |
| HCC-15 | 1.26 | 1.33 | 1.34 | 0.902 | 0.154 | 0.286 | 0.322 | 0.459 | 0.229 | 0.227 | 1.04 | 0.938 | 1.1 | 0.297 | 0.785 | 0.389 | 0.424 | 0.404 |  | 0.319 |
| HCC-78 | 0.691 | 0.592 | 0.532 | 0.526 | 0.422 |  |  |  |  |  | 0.511 | 0.645 | 0.507 | 0.525 | 0.395 | 0.643 | 0.482 | 0.418 | 0.378 | 0.319 |
| HCC-366 | 0.267 | 0.29 | 0.204 | 0.346 | 0.0475 |  |  |  |  |  | 1.06 | 1.02 | 1.1 | 0.959 | 0.906 | 0.108 | 0.147 | 0.187 | 0.0897 | 0.0876 |
| IA-LM |  |  |  |  |  |  |  |  |  |  | 0.748 | 0.824 | 0.789 | 0.648 | 0.678 |  |  |  |  |  |
